According to patent US8003636B2, “Certain crystalline diphenylazetidinone hydrates, pharmaceutical compositions thereof and methods for their use” (Sanofi-Aventis Deutschland GmbH, priority 2007, dated 2011):
One block for each molecule: values may come before it.

How the values were obtained:
[1] = Test of the dissolution rate (USP 27 paddle apparatus); type: physicochemical; settings: for release [%]: 20 mg in 1000 ml 0.1% aqueous SDS, 37° C., 75 rpm paddle, mean of three
Experimental: The dissolution rate of the crystalline hydrates of the formula I was tested as follows: […]
The dissolution rate is measured in a standard apparatus (paddle) according to the US Pharmacopeia (USP 27) at 37° C. The stirrer speed is 75 rpm.
20 mg of the substance to be examined are added to 1000 ml of a 0.1% strength aqueous sodium dodecylsulfate (SDS) solution. After 15, 30, 45 and 60 minutes, samples of 20 ml are taken.
The portion dissolved is determined photometrically at 256 nm using a comparison solution. The measurement is carried out in 10 mm cuvettes using, for example, a Perkin Elmer Lambda 25 photometer. The samples are measured directly after removal of the samples. In each case, a mean is calculated from three determinations.
The comparison solution is prepared as follows: 2-3 mg of the batch used are dissolved in 2 ml of dimethylformamide in a measuring flask. The volume is then made up to 100.0 ml using 0.1% strength SDS solution.
The amorphous compound of the formula I used in Example 2 was compared to the crystalline compound of the formula I obtained in the same Example 2.

[2] = system: Cholesterol absorption; assay: Effect on cholesterol absorption + 3H-taurocholic acid elimination via fecal elimination; type: in vivo, NMRI mice; settings: dose which doubles fecal elimination of TCA or cholesterol vs control group, peroral, feces collected over 24 h
Experimental: Effect on Cholesterol Absorption+^3H-Taurocholic Acid Elimination via Fecal Elimination in Mice, Rats or Hamsters
NMRI mice, Wistar rats or Golden Syrian hamsters (in groups of n=4-6) are kept with a standard diet (Altromin, Lage (Lippe), Germany) in metabolic cages. The afternoon prior to the administration of the radioactive tracers (^14C-cholesterol) the feed is withdrawn, and the animals are adapted to the cage wires.
In addition, 24 hours prior to the peroral administration of the test meal (^14C-cholesterol in Intralipid® 20, Pharmacia-Upjohn), the animals are labelled s.c. with ^3H-TCA (taurocholic acid) (for example 1 μCi/mouse to 5 μCi/rat).
Cholesterol absorption test: 0.25 ml/mouse Intralipid® 20 (Pharmacia-Upjohn) (spiked with 0.25 μCi ^14C-cholesterol in 0.1 mg of cholesterol) is administered perorally using a stomach tube. […]
The feces are collected over a period of 24 h: the fecal elimination of ^14C-cholesterol and 3H-taurocholic acid (TCA) is determined after 24 hours. […]
The total weight is determined, the sample is made up with water to a defined volume and then homogenized, an aliquot is evaporated to dryness and incinerated in an Oximate (Model 307, Packard, for the incineration of radioactively labelled samples): the amount of radioactive ^3H—H2O und ^14C—CO2 is extrapolated to the amount of ^3H-taurocholic acid or ^14C-cholesterol eliminated (dual isotope technique). […]

[3] = Water content on storage at 23° C./60% relative atmospheric humidity; type: physicochemical; settings: for Water content (%): previously dried to 0.8% water
Experimental: The hydrate obtained in Example 2 was dried under reduced pressure at 50° C. until a water content of 0.8% had been reached. The crystalline product was stored at 23° C./60% relative atmospheric humidity.

[4] = storage time 0.5 h at 23° C./60% relative humidity
[5] = storage time 2 h at 23° C./60% relative humidity
[6] = storage time 4 h at 23° C./60% relative humidity
[7] = storage time 6 h at 23° C./60% relative humidity
[8] = storage time 24 h at 23° C./60% relative humidity

release [%] ([1]; 15 min): 30.0%
release [%] ([1]; 30 min): 41.3%
release [%] ([1]; 45 min): 44.7%
release [%] ([1]; 60 min): 46.2%
Structure (SMILES): COc1ccc([C@@H]2[C@@H](CC[C@H](O)c3ccc(F)cc3)C(=O)N2c2ccc(CNC(=O)CCCCCCCCCCC(=O)NC[C@H](O)[C@@H](O)[C@H](O)[C@H](O)CO)cc2)cc1 [Amorphous compound of the formula II, reference compound]

release [%] ([1]; 15 min, listed as Crystalline compound of the formula I): 88.0%
release [%] ([1]; 30 min, listed as Crystalline compound of the formula I): 90.0%
release [%] ([1]; 45 min, listed as Crystalline compound of the formula I): 94.6%
release [%] ([1]; 60 min, listed as Crystalline compound of the formula I): 98.7%
Structure (SMILES): COc1ccc([C@@H]2[C@@H](CC[C@H](O)c3ccc(F)cc3)C(=O)N2c2ccc(CNC(=O)CCCCCCCCCCC(=O)NC[C@H](O)[C@@H](O)[C@H](O)[C@H](O)CO)cc2)cc1 [Example 2]
ED200 value (fecal elimination [mg/mouse]) [2]: 0.01 mg/mouse
amount in solution relative to the amorphous active ingredient ([1]; after 15 minutes): almost three times the amount of the amorphous active ingredient

n (hydrate water per formula I) [3, 4]: 0.5
Water content (%) [3, 4]: 1.1%
n (hydrate water per formula I) [3, 5]: 1.09
Water content (%) [3, 5]: 2.4%
n (hydrate water per formula I) [3, 6]: 1.14
Water content (%) [3, 6]: 2.5%
n (hydrate water per formula I) [3, 7]: 1.09
Water content (%) [3, 7]: 2.4%
n (hydrate water per formula I) [3, 8]: 1.14
Water content (%) [3, 8]: 2.5%
Structure (SMILES): COc1ccc([C@@H]2[C@@H](CC[C@H](O)c3ccc(F)cc3)C(=O)N2c2ccc(CNC(=O)CCCCCCCCCCC(=O)NC[C@H](O)[C@@H](O)[C@H](O)[C@H](O)CO)cc2)cc1 [Example 6]
